A value given as a limit tells only on which side of the number the result lay.

The test deals with T1, pY705-STAT3 in PBMC (Homo sapiens, UniProt P40763).
T1 construct: Cryopreserved Peripheral Blood Mononuclear Cells (PBMC) are from AllCells; host or cells: cryopreserved PBMC
T1 sequence (P40763 whole entry): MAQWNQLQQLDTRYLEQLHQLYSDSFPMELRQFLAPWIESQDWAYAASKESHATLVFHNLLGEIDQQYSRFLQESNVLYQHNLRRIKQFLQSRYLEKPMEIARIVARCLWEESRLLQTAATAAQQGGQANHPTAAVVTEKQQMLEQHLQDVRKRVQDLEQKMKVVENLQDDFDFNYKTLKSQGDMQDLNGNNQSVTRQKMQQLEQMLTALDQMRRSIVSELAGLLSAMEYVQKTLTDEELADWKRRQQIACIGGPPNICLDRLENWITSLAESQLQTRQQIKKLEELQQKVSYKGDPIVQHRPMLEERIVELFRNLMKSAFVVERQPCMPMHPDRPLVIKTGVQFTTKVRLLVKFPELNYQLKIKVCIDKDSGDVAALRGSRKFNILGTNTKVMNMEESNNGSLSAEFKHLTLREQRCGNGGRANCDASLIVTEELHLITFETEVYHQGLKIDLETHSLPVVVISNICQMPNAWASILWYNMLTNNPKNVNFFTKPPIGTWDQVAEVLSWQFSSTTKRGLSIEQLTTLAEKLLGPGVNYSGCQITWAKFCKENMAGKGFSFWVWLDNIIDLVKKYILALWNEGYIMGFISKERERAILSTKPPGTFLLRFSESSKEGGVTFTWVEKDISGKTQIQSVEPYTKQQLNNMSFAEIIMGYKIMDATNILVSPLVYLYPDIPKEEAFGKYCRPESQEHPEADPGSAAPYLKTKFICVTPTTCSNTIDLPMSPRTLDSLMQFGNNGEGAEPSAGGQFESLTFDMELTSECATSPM
In words: MSD-pSTAT-PBMC Assay (pSTAT3, IL-6 stimulated). The format is cell-based. The settings on record: PBMC, compound 3 hrs, then 10 ng/mL IL-6 for 10 min; Table 115; read-out: STAT3. The source says: Cryopreserved Peripheral Blood Mononuclear Cells (PBMC) are from AllCells. Recombinant Human IL-4 and IL-6 are from Peprotech. Mouse monoclonal anti-STAT3 antibody, rabbit monoclonal anti-pY705-STAT3 antibody, rabbit monoclonal Anti-pY641-STAT6 antibody, and lysis buffer are from Cell Signaling Technology (CST). Mouse monoclonal anti-STAT6 antibody is from BioLegend. Assay plates, blocker, and anti-rabbit secondary antibody are from Meso Scale Discovery (MSD).
Cyropreserved PBMCs were thawed out and allowed to recover overnight in IMDM+10% heat-inactivated FBS prior to plating 50,000 (STAT3) or 25,000 (STAT6) cells per well in 96-well U-bottom tissue culture plates. Cells were treated with compound for 3 hrs, then stimulated with 10 ng/mL IL-6 (STAT3) or 1 ng/mL IL-4 (STAT6) for 10 min. Cells were then spun down and washed with ice-cold PBS prior to lysing the cell pellet with 1× lysis buffer (CST) with 1× HALT protease and phosphatase inhibitor cocktail (Thermo). Lysates were transferred to and incubated overnight at 4° C. with shaking in QuickPlex 96-well high bind assay plates (MSD) pre-coated overnight with 30 μL per well of 0.6 μg/mL mouse monoclonal anti-STAT3 antibody (STAT3) or 2 μg/mL mouse monoclonal anti-STAT6 antibody (STAT6) in 1× PBS, and pre-blocked for 1 hour with 3% Blocker-A (MSD). Captured protein in the assay plates were then washed and probed with 25 μL per well of […] rabbit monoclonal anti-pY705-STAT3 antibody (STAT3) or 0.18 μg/ml rabbit monoclonal Anti-pY641-STAT6 antibody (STAT6) in 1% Blocker-A for 1 hour at room temperature with shaking, then washed and probed with 25 ul per well of 1 ug/ml Sulfo-TAG Labeled Goat Anti-Rabbit Antibody (MSD) in 1% Blocker-A for 1 hour at room temperature with shaking. Assay plates were then washed and 150 μL of 1× Read Buffer-T (MSD) was added to each well prior to reading on an SQ120 MSD Plate Reader. Assay signal from each sample was subtracted by the signal from unstimulated control wells and normalized to DMSO control wells. IC50 values were calculated using Graph Pad Prism Dose-Response Nonlinear Regression with variable slope. For both pSTAT3 and pSTAT6 A=≤100 nM; B 100-1000 nM; C=>1000-3000 nM; D=>3 μM; and NT=Not Tested.
Take `COc1ccncc1C1CN(C(=O)[C@@H]2CC[C@@H]3CCC[C@H](NC(=O)c4cc5cc([C@H](F)[P@@](=O)(N[C@@H](C)C(=O)OCc6ccccc6)Oc6ccccc6)ccc5s4)C(=O)N32)C1` (single isomer, unassigned) [Compound 1051]: the IC50 was in the range of 100 to 1000 nM.

Consider `COc1ccncc1C1CN(C(=O)[C@@H]2CC[C@@H]3CCC[C@H](NC(=O)c4cc5cc([C@H](F)[P@@](=O)(N[C@@H](C)C(=O)OC(C)C)Oc6ccccc6)ccc5s4)C(=O)N32)C1` (single isomer, unassigned) [Compound 1052], for which the IC50 lay in the range of 100 to 1000 nM.

As for `COc1ccncc1C1CN(C(=O)[C@@H]2CC[C@@H]3CCC[C@H](NC(=O)c4cc5cc([C@@H](F)[P@@](=O)(N[C@@H](C)C(=O)OC(C)C)Oc6ccccc6)ccc5s4)C(=O)N32)C1` (single isomer, unassigned) [Compound 1053], the IC50 was below 100 nM.

In the case of `COc1ccncc1C1CN(C(=O)[C@@H]2CC[C@@H]3CCC[C@H](NC(=O)c4cc5cc([C@@H](F)[P@](=O)(N[C@@H](C)C(=O)OCc6ccccc6)Oc6ccccc6)ccc5s4)C(=O)N32)C1` (single isomer, unassigned) [Compound 1054], the IC50 is below 100 nM.

With `COc1ccncc1C1CN(C(=O)[C@@H]2CC[C@@H]3CCC[C@H](NC(=O)c4cc5cc([C@@H](F)[P@](=O)(N[C@@H](C)C(=O)OCC(C)(C)C)Oc6ccccc6)ccc5s4)C(=O)N32)C1` (single isomer, unassigned) [Compound 1056], the IC50 was below 100 nM.

Consider `COc1ccncc1C1CN(C(=O)[C@@H]2CC[C@@H]3CCC[C@H](NC(=O)c4cc5cc([C@@H](F)[P@](=O)(N[C@@H](C)C(=O)OCC(C)(C)C)Oc6ccccc6)ccc5s4)C(=O)N32)C1` (single isomer, unassigned) [Compound 1057], for which the IC50 is below 100 nM.

Turning to `CCCOC(=O)[C@H](C)N[P@](=O)(Oc1ccccc1)[C@@H](F)c1ccc2sc(C(=O)N[C@H]3C[C@@H](C)C[C@H]4CC[C@@H](C(=O)N5CC(c6cnccc6OC)C5)N4C3=O)cc2c1` (single isomer, unassigned) [Compound 1058], the IC50 is below 100 nM.

Consider `CCCOC(=O)[C@H](C)N[P@](=O)(Oc1ccccc1)[C@@H](F)c1ccc2sc(C(=O)N[C@H]3C[C@@H](C)C[C@H]4CC[C@@H](C(=O)N5CC(c6cnccc6OC)C5)N4C3=O)cc2c1` (single isomer, unassigned) [Compound 1059], for which the IC50 was below 100 nM.

Consider `CCCOC(=O)[C@H](C)N[P@](=O)(Oc1ccccc1)[C@H](F)c1ccc2sc(C(=O)N[C@H]3CCC[C@H]4CC[C@@H](C(=O)N5CC(c6cnccc6N(C)C)C5)N4C3=O)cc2c1` (stereo in doubt) [Compound 953], for which the IC50 is below 100 nM.

`CC(C)OC(=O)[C@H](C)NP(=O)(Oc1ccccc1)C(F)(F)c1ccc2sc(C(=O)N[C@H]3CCC[C@H]4CC[C@@H](C(=O)N5CC(c6cccnc6)C5)N4C3=O)cc2c1` (stereo partly drawn) [Compound 248, isopropyl ((difluoro(2-(((3S,6S,9aS)-5-oxo-3-(3-(pyridin-3-yl)azetidine-1-carbonyl)octahydro-1H-pyrrolo[1,2-a]azepin-6-yl)carbamoyl)benzo [b]thiophen-5-yl)methyl)(phenoxy)phosphoryl)-L-alaninate]: the IC50 is above 3000 nM.

Consider `CCCOC(=O)[C@H](C)NP(=O)(Cc1ccc2sc(C(=O)N[C@H]3CCC[C@H]4CC[C@@H](C(=O)N5CC(c6cccnc6)C5)N4C3=O)cc2c1)Oc1ccccc1` (stereo partly drawn) [Compound 250, propyl (((2-(((3S,6S,9aS)-5-oxo-3-(3-(pyridin-3-yl)azetidine-1-carbonyl)octahydro-1H-pyrrolo[1,2-a]azepin-6-yl)carbamoyl)benzo [b]thiophen-5-yl)methyl)(phenoxy)phosphoryl)-L-alaninate], for which the IC50 is below 100 nM.

On to `CCCOC(=O)[C@H](C)NP(=O)(Cc1ccc2sc(C(=O)N[C@H]3CC(C)C[C@H]4CC[C@@H](C(=O)N5CC(c6cnccc6C)C5)N4C3=O)cc2c1)Oc1ccccc1` (stereo partly drawn) [Compound 251, propyl (((2-(((3S,6S,9aR)-8-methyl-3-(3-(4-methylpyridin-3-yl)azetidine-1-carbonyl)-5-oxooctahydro-1H-pyrrolo[1,2-a]azepin-6-yl)carbamoyl)benzo [b]thiophen-5-yl)methyl)(phenoxy)phosphoryl)-L-alaninate], for which the IC50 is below 100 nM.

As to `CCCCOC(=O)[C@H](C)NP(=O)(Oc1ccccc1)C(F)(F)c1ccc2sc(C(=O)N[C@H]3CCC[C@H]4CC[C@@H](C(=O)N5CC(c6cccnc6)C5)N4C3=O)cc2c1` (stereo partly drawn) [Compound 254, butyl ((difluoro(2-(((3S,6S,9aS)-5-oxo-3-(3-(pyridin-3-yl)azetidine-1-carbonyl)octahydro-1H-pyrrolo[1,2-a]azepin-6-yl)carbamoyl)benzo [b]thiophen-5-yl)methyl)(phenoxy)phosphoryl)-L-alaninate], the IC50 was in the range of 100 to 1000 nM.

With `C[C@H](NP(=O)(Cc1ccc2sc(C(=O)N[C@H]3CCC[C@H]4CC[C@@H](C(=O)N5CC(c6cccnc6)C5)N4C3=O)cc2c1)Oc1ccccc1)C(=O)OCC(C)(C)C` (stereo partly drawn) [Compound 256, neopentyl (((2-(((3S,6S,9aS)-5-oxo-3-(3-(pyridin-3-yl)azetidine-1-carbonyl)octahydro-1H-pyrrolo[1,2-a]azepin-6-yl)carbamoyl)benzo [b]thiophen-5-yl)methyl)(phenoxy)phosphoryl)-L-alaninate], the IC50 is below 100 nM.

With `CCCOC(=O)[C@H](C)NP(=O)(Cc1ccc2sc(C(=O)N[C@H]3CCC[C@H]4CC[C@@H](C(=O)N5CC(c6cnccc6CC)C5)N4C3=O)cc2c1)Oc1ccccc1` (stereo partly drawn) [Compound 257, propyl (((2-(((3S,6S,9aS)-3-(3-(4-ethylpyridin-3-yl)azetidine-1-carbonyl)-5-oxooctahydro-1H-pyrrolo[1,2-a]azepin-6-yl)carbamoyl)benzo [b]thiophen-5-yl)methyl)(phenoxy)phosphoryl)-L-alaninate], the IC50 is below 100 nM.

In the case of `CCC(CC)COC(=O)[C@H](C)NP(=O)(Cc1ccc2sc(C(=O)N[C@H]3CCC[C@H]4CC[C@@H](C(=O)N5CC(c6cccnc6)C5)N4C3=O)cc2c1)Oc1ccccc1` (stereo partly drawn) [Compound 258, 2-ethylbutyl (((2-(((3S,6S,9aS)-5-oxo-3-(3-(pyridin-3-yl)azetidine-1-carbonyl)octahydro-1H-pyrrolo[1,2-a]azepin-6-yl)carbamoyl)benzo [b]thiophen-5-yl)methyl)(phenoxy)phosphoryl)-L-alaninate], the IC50 was below 100 nM.

Take `CC(C)COC(=O)[C@H](C)NP(=O)(Cc1ccc2sc(C(=O)N[C@H]3CCC[C@H]4CC[C@@H](C(=O)N5CC(c6cccnc6)C5)N4C3=O)cc2c1)Oc1ccccc1` (stereo partly drawn) [Compound 259, isobutyl (((2-(((3S,6S,9aS)-5-oxo-3-(3-(pyridin-3-yl)azetidine-1-carbonyl)octahydro-1H-pyrrolo[1,2-a]azepin-6-yl)carbamoyl)benzo [b]thiophen-5-yl)methyl)(phenoxy)phosphoryl)-L-alaninate]: the IC50 is below 100 nM.

For `CCCOC(=O)[C@H](C)NP(=O)(Cc1ccc2sc(C(=O)N[C@H]3CCC[C@H]4CC[C@@H](C(=O)N5CC(c6cncnc6C)C5)N4C3=O)cc2c1)Oc1ccccc1` (stereo partly drawn) [Compound 260, propyl (((2-(((3S,6S,9aS)-3-(3-(4-methylpyrimidin-5-yl)azetidine-1-carbonyl)-5-oxooctahydro-1H-pyrrolo[1,2-a]azepin-6-yl)carbamoyl)benzo [b]thiophen-5-yl)methyl)(phenoxy)phosphoryl)-L-alaninate], the IC50 is 1000 to 3000 nM.

In the case of `CCCOC(=O)[C@H](C)NP(=O)(Oc1ccccc1)C(F)c1ccc2sc(C(=O)N[C@H]3CCC[C@H]4CC[C@@H](C(=O)N5CC(c6cnccc6CC)C5)N4C3=O)cc2c1` (stereo partly drawn) [Compound 261, propyl (((2-(((3S,6S,9aS)-3-(3-(4-ethylpyridin-3-yl)azetidine-1-carbonyl)-5-oxooctahydro-1H-pyrrolo[1,2-a]azepin-6-yl)carbamoyl)benzo [b]thiophen-5-yl)fluoromethyl) (phenoxy)phosphoryl)-L-alaninate], the IC50 was below 100 nM.

In the case of `CCCOC(=O)CNP(=O)(Cc1ccc2sc(C(=O)N[C@H]3CCC[C@H]4CC[C@@H](C(=O)N5CC(c6cccnc6)C5)N4C3=O)cc2c1)Oc1ccccc1` (stereo partly drawn) [Compound 264, propyl (((2-(((3S,6S,9aS)-5-oxo-3-(3-(pyridin-3-yl)azetidine-1-carbonyl)octahydro-1H-pyrrolo[1,2-a]azepin-6-yl)carbamoyl)benzo [b]thiophen-5-yl)methyl)(phenoxy)phosphoryl)glycinate], the IC50 fell in the range of 100 to 1000 nM.

The record behind these values is patent US20250215029A1 (Recludix Pharma, Inc., priority 2022, published 2025).
